Where two headings read alike, the source gives them in different places.
Experiments:
[1] = biological target: T1, cross-linking of glycated bovine serum albumin (AGE-BSA) to the rat tail tendon collagen (Bos taurus, UniProt P02769); experiment: Inhibition of cross-linking of glycated BSA (AGE-BSA) to collagen-coated plate, ELISA (Example 4); assay type: biochemical; conditions: for inhibition at 10000 µM: 4 h
T1 construct: The AGE-BSA was prepared by incubating BSA at a concentration of 200 mg per ml with 200 mM glucose
T1 sequence (P02769 25-607): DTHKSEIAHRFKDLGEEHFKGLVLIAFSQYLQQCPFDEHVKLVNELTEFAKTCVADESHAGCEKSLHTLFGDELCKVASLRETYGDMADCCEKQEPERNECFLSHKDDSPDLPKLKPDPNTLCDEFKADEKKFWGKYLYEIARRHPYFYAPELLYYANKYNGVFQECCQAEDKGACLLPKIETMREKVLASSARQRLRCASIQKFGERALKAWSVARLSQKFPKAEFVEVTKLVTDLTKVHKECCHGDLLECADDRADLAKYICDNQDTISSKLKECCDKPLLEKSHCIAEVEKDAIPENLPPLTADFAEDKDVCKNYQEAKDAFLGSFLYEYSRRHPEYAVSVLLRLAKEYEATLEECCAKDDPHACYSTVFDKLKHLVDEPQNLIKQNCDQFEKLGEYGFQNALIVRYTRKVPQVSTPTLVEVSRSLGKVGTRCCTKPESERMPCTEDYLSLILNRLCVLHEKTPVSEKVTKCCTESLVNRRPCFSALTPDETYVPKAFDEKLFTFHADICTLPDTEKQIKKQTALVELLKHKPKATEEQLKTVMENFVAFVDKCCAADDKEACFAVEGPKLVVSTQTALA
Description: The following method was used to evaluate the ability of the compounds of the present invention to inhibit the cross-linking of glycated bovine serum albumin (AGE-BSA) to the rat tail tendon collagen coated 96-well plate.
The glycated BSA was then extensively dialyzed against phosphate buffer solution (PBS) for 48 hours with additional 5 times buffer exchanges. […] The blocking solution was removed from the wells by washing the plate twice with PAS-Tween 20 solution (0.05% Tween 20) using a NUNC-multiprobe or Dynatech ELISA-plate washer. […] The unbrowned BSA in PBS buffer with or without testing compound were added to the separate wells as the blanks. The uncross-linked AGE-BSA was then removed by washing the wells three times with PBS-Tween buffer. The cross-linked AGE-BSA to the tail tendon coated plate was then quantitated by the polyclonal antibody raised against AGE-RNase. After a one-hour incubation period, AGE antibody was removed by washing 4 times with PBS-Tween.
The bound AGE antibody was then detected with the addition of horseradish peroxidase-conjugated secondary antibody, e.g., goat anti-rabbit immunoglobulin and incubation for 30 minutes. […] The reaction was allowed for an additional 15 minutes and the absorbance was read at 410 nm in a Dynatech plate reader.

[2] = Inhibition of ribose-induced cross-linking of N-acetyl glycyl-lysine methyl ester, fluorescence (Example 5); assay type: biochemical; conditions: 37°C, 16-24 hours, pH 7.4; fluorescence 350/400 nm
Description: Materials: • N-acetylglycyllysine methyl ester (DP in formula below) • Ribose (R in formula below) • Test compounds (C in formula below)
Reagents: • 0.5 M sodium phosphate buffer pH 7.4 • N-acetylglycyllysine methyl ester in 0.5M sodium phosphate buffer, pH 7.4 Ribose: 800 mM
Test compounds dissolved in the above buffer and the pH is adjusted to 7.4, if necessary
Reaction mixtures are prepared as follows:
and incubated at 37°C for 16-24 hours. At the end of the incubation period, the fluorescence is read using an excitation wavelength of 350 nm and emission wavelength of 400 nm. The inhibition of the cross-linking is calculated from the decrease in the fluorescence in the presence of the test compounds according to the formula: […] [formula]
The Inhibition by various test compounds (IC50) is as follows: […]

[3] = biological target: T2, AGE-BSA previously crosslinked to the collagen (Bos taurus, UniProt P02769); experiment: AGE cross-link breaking sandwich enzyme immunoassay (Example 6); assay type: biochemical; conditions: 10 mM, 16 hours, 37°C
T2 construct: purchased Calbiochem (BSA Type V); Collaborative Biomedical Products (Biocoat collagen plates)
T2 sequence (P02769 25-607): as above
T2 sequence (P02454 152-1207 partner limits assumed): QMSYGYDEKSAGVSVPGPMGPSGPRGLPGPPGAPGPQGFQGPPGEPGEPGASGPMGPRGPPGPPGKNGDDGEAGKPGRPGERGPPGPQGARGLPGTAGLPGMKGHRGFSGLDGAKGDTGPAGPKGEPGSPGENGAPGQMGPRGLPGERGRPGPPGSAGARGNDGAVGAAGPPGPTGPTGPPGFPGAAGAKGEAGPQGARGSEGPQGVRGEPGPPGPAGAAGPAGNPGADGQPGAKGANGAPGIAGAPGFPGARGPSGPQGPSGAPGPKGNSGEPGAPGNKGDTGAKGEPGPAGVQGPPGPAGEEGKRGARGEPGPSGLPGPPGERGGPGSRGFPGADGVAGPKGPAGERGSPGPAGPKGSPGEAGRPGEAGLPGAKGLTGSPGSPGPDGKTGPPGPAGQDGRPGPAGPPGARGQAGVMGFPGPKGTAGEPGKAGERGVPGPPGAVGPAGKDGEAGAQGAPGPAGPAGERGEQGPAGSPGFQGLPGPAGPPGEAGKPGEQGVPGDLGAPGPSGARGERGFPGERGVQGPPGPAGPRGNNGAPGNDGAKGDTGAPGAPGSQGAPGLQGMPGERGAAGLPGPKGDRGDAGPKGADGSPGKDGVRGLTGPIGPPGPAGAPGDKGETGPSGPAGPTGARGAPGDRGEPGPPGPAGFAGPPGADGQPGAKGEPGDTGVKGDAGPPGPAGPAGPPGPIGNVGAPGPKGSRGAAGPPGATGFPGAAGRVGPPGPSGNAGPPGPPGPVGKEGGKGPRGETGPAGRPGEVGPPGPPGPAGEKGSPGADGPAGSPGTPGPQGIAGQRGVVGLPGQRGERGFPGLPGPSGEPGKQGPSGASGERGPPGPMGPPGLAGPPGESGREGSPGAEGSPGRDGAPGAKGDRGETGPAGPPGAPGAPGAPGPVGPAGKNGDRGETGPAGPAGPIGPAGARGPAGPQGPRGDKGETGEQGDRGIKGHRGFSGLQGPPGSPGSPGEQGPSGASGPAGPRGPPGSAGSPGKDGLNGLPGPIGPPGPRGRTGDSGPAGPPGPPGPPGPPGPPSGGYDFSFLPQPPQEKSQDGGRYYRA
T2 sequence (P02466 86-1125 partner limits assumed): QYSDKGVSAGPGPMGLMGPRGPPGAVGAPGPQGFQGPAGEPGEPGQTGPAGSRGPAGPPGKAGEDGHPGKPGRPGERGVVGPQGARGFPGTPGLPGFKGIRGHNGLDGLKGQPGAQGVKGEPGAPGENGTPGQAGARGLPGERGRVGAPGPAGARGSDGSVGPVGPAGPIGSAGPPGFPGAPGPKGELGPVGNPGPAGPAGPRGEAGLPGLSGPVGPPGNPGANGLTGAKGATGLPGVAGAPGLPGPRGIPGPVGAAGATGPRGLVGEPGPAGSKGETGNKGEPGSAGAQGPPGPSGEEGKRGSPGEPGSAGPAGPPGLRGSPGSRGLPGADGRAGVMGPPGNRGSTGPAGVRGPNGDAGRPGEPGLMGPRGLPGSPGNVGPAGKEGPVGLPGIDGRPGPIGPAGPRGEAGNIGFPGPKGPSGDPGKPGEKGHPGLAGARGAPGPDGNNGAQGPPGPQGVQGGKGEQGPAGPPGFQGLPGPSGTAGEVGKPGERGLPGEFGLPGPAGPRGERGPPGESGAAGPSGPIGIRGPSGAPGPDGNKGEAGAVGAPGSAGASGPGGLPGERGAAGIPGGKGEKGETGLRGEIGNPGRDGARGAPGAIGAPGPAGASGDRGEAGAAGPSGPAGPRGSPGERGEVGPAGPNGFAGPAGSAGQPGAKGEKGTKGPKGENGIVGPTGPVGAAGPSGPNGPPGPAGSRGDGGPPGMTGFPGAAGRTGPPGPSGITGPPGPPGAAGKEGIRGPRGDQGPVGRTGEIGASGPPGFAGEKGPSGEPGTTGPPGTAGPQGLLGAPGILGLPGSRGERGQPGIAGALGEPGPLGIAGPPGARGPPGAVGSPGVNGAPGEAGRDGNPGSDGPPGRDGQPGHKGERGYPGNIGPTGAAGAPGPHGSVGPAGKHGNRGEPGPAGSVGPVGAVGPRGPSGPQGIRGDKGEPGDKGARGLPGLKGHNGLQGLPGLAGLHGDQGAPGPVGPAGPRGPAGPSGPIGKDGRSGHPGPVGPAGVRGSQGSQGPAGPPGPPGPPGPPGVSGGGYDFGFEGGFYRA
Description: In order to ascertain the ability of the compounds of the instant invention to "break" or reverse already formed advanced glycosylation endproducts, a novel sandwich enzyme immunoassay was developed which detects breaking of AGE (Advanced glycosylation endproduct) moieties from AGE-crosslinked protein. The assay utilizes collagen-coated 96 well microtiter plates that are obtained commercially. AGE-modified protein (AGE-BSA), prepared, for instance, as in Example 8, above, is incubated on the collagen-coated wells for four hours, is washed off the wells with PBS-Tween and solutions of the test compounds are added. Following an incubation period of 16 hours (37°C) cross-link-breaking is detected using an antibody raised against AGE-ribonuclease or with an antibody against BSA. Positive results in this assay indicate compounds that are capable of reducing the amount of AGE-BSA previously crosslinked to the collagen by breaking the crosslinks and allowing the liberated material to be flushed away in subsequent washing steps. Details of the assay are as follows:
• 1. AGE-BSA stock solutions were prepared as follows. Sodium phosphate buffer (0.4 M) was prepared by dissolving 6 grams of monobasic sodium phosphate in 100 ml of distilled water, 7 grams of dibasic sodium phosphate (0.4 M) in 100 ml of distilled water and adjusting the pH of the dibasic solution to 7.4 with the monobasic solution. Sodium azide (0.02 grams) was added per 100 ml volume to inhibit bacterial growth. The BSA solution was prepared as follows: 400 mg of Type V BSA (bovine serum albumin) was added for each ml of sodium phosphate buffer (above). A 400 mM glucose solution was prepared by dissolving 7.2 grams of dextrose in 100 ml of sodium phosphate buffer (above). The BSA and glucose solutions were mixed 1:1 and incubated at 37°C for 12 weeks. The pH of the incubation mixture was monitored weekly and adjusted to pH 7.4 if necessary. After 12 weeks, the AGE-BSA solution was dialyzed against PBS for 48 hours with four buffer changes, each at a 1:500 ratio of solution to dialysis buffer. Protein concentration was determined by the micro-Lowry method. The AGE-BSA stock solution was aliquoted and stored at -20°C. Dilute solutions of AGE-BSA were unstable when stored at -20°C. • 2. Working solutions for crosslinking and breaking studies were prepared as follows. Test compounds were dissolved in PBS and the pH was adjusted to pH 7.4 if necessary. AGE-BSA stock solution was diluted in PBS to measure maximum crosslinking. The concentration of AGE-BSA necessary to achieve the optimum sensitivity was determined by initial titration of each lot of AGE-BSA. • 3. Wash buffer ("PBS-Tween") was prepared as follows. PBS was prepared by dissolving the following salts in one liter of distilled water: NaCl, 8 grams; KCl, 0.2 gram, KH2PO4. 1.15 grams; NaN3, 0.2 gram. Tween-20 was added to a final concentration of 0.05% (vol/vol). • 4. Substrates for detection of secondary antibody binding were prepared by diluting the HRP substrate buffer 1:10 in distilled water and mixing with ABTS chromogen 1:50 just prior to use.
• 1. Biocoat plates were blocked with 300 µl of "Superbloc". Plates were blocked for one hour at room temperature and were washed with PBS-Tween three times with the Dynatech platewasher before addition of test reagents. • 2. Each experiment was set up in the following manner. The first three wells of the Biocoat plate were used for the reagent blank. Fifty microliters of solutions AGE-BSA were added to test wells in triplicate and only PBS in blank wells. The plate was incubated at 37°C for four hours and washed with PBS-Tween three times. Fifty microliters of PBS was added to the control wells and 50 µl of the test "AGE Cross-link breaker" compound was added to the test wells and blank. The plate was incubated overnight (approximately 16 hours) with the test "AGE Cross-link breaker" compound, followed by washing in PBS-Tween before addition of primary antibody (below). • 3. […]

[4] = system: fixed protein (gelatin. i.e., collagen) surface; experiment: Surface browning experiment on gelatin/paper disks (Example 10); conditions: 100 Mm glucose-6-phosphate, one week at 50°C; Peridex at final 0.04% chlorhexidine
Description: To further study the ability of inhibitors of nonenzymatic browning to prevent the discoloration of protein on a surface, such as that which occurs on the tooth surface, the following surface browning experiment is performed. As a substitute for a pellicle-covered tooth surface. unexposed and developed photographic paper is used to provide a fixed protein (gelatin. i.e., collagen) surface on a paper backing. Five millimeter circles are punched and immersed for one week at 50°C in a solution of 100 Mm glucose-6-phosphate in a 0.5 M phosphate buffer, pH 7.4, containing 3 Mm sodium azide. Glucose-6-phosphate is a sugar capable of participating in nonenzymatic browning at a more rapid rate than glucose. In addition to the glucose-6-phosphate, chlorhexidine and/or a compound of Formula I are included. After incubation, the gelatin/paper disks are rinsed with water, observed for brown color, and photographed.

[5] = pH 7.4, at 10 mM, 37°C, 4 hours, pH 7.4, read-out: %Inh.
[6] = primary antibody anti-AGE-RNase, read-out: %breaking allowed, Pr AbαAGE
[7] = primary antibody anti-BSA, read-out: %breaking allowed, PrAbαBSA

inhibition at 10000 µM [3, 6]	inhibition at 10000 µM [3, 7]	Structure (SMILES)	inhibition at 10000 µM [1, 5]	other results
–	–	CCOC(=O)CCCCCn1cc[n+](CC(=O)c2cccc(OC)c2)c1 [1-(ethoxycarbonylpentyl)-3-[2-(3'-methoxyphenyl)-2-oxoethyl]-imidazolium bromide]	40%	–
–	–	CCOC(=O)CCCCCn1cc[n+](CC(=O)c2ccc(OC)cc2)c1 [1-(ethoxycarbonylpentyl)-3-[2-(4'-methoxyphenyl)-2-oxoethyl]-imidazolium bromide]	23%	%Inh. ([1]; at 10 mM, 37°C, 4 hours, pH 7.4, 240 min, 10000 µM): 40%
–	–	CCOC(=O)CCCCCn1cc[n+](CC(=O)c2ccc(C)cc2)c1 [1-(ethoxycarbonylpentyl)-3-[2-(4'-methylphenyl)-2-oxoethyl]-imidazolium bromide]	33%	–
32%	28%	CCN(CC)c1ccc(C(=O)C[n+]2ccn(C)c2)cc1 [1-Methyl-3-[2-(4'-diethylaminophenyl)-2-oxo-ethyl]-imidazolium bromide]	–	IC50 [2]: 530 µM
20%	24%	COc1cccc(C(=O)C[n+]2ccn(C)c2)c1 [1-methyl-3-[2-(3'-methoxyphenyl)-2-oxoethyl]-imidazolium bromide]	–	–
–	–	Cn1cc[n+](CC(=O)c2ccc(Br)cc2)c1 [1-methyl-3-[2-(4'-bromophenyl)-2-oxoethyl]-imidazolium bromide]	–	inhibition at 10000 µM ([1]; pH 7.4, read-out: %Inh.): 23%
–	–	Cn1cc[n+](CC(=O)c2ccc(F)cc2)c1 [1-methyl-3-[2-(4'-fluorophenyl)-2-oxoethyl]-imidazolium bromide]	29%	–
38%	27%	COc1ccc(C(=O)C[n+]2ccn(C)c2)cc1 [1-methyl-3-[2-(4'-methoxyphenyl)-2-oxoethyl]-imidazolium bromide]	–	–
–	–	[H]/N=C(\N/C(=N/[H])NCCCCCCNC(=N)NC(=N)Nc1ccc(Cl)cc1)Nc1ccc(Cl)cc1 [chlorhexidine]	–	brown color of gelatin/paper disks [4]: significant browning

— EP1213282A1, “Substituted imidazolium salts and their use for the inhibition of protein ageing” (ALTEON Inc., priority 1996, dated 1997)
